Experimental data from patent US20240207288A1, “METHODS OF TREATING ESOPHAGEAL STRICTURES” (Ellodi Pharmaceuticals, L.P., priority 2021, published 2024).
Read-outs that look alike come from different tables or passages of the source.

Experiments:
[1] = system: subjects with strictures and/or rings and EoE; assay: Clinical trial of FP ODT: histologic response (peak eosinophils/HPF in oesophageal biopsies); assay type: in vivo, human; conditions: subgroup with strictures and/or Grade 2 rings at baseline, Week 12
Experimental: (§1) A clinical trial was performed to evaluate the effect of an orally disintegrating tablet (“ODT”) comprising fluticasone propionate (FP). A randomised, double-blind, placebo-controlled, multicentre, dose-ranging, and maintenance study of FP in subjects (>18 and <75 years of age) with strictures and/or rings and EoE. The trial examined four doses of FP to define the exposure-response of FP and the minimum effective dose to minimize significant hypothalamic-pituitary-adrenal (HPA) axis effects. The study (as shown in FIG. 1) was designed as follows. • (a) Screening: Patients with a confirmed diagnosis or presumptive diagnosis of EoE (including identifying strictures and/or rings) were selected for the study. An EoE diagnosis was confirmed by symptoms, histology, and historical documentation of failed treatment on >8 weeks of high-dose proton pump inhibitor (PPI). A high-dose PPI was defined as administration of a total dose of 20 to 40 mg of a marketed PPI once or twice daily.
(§2) Subjects that participated in Part 1 studies were randomized and administered a treatment selected from: • (a) 1.5 mg HS: Placebo 30 minutes after breakfast and 1.5 mg HS (at bedtime); • (b) 1.5 mg BID: 1.5 mg 30 minutes after breakfast and at bedtime; total daily dose of 3 mg; • (c) 3 mg HS: Placebo 30 minutes after breakfast and 3 mg at bedtime; and • (d) 3 mg BID: 3.0 mg 30 minutes after breakfast and at bedtime; total daily dose of 6 mg.
During Part 1 (Induction, Day 1 to Week 14), subjects received their randomized treatment for 14 weeks. At Week 12, the subjects underwent a response assessment, including an oesophagogastroduodenoscopy (EGD) to assess endoscopic and histologic status. Histologic responders and non-responders (at Week 12) entered Part 2.
The primary endpoint was the histologic responder rate at Week 12 of Part 1, […] 5 to 6 biopsies from the proximal and distal oesophagus (approximately 3 each) where the HPF area was […] (40 magnification lens with a 22 mm ocular).

[2] = system: subjects with strictures and/or rings and EoE; assay: Clinical trial of FP ODT: dysphagia episodes (symptom response); assay type: in vivo, human; conditions: subgroup with strictures and/or Grade 2 rings at baseline, Week 12
Experimental: as §1
as §2, with “mg. […]” for “mg.”

[3] = system: subjects with EoE (safety analysis set); assay: Clinical trial of FP ODT: treatment-emergent adverse events; assay type: in vivo, human
Experimental: as §2
Patient Population: 105 subjects received at least 1 dose of study drug in Part 1 of the study safety analysis set (SAF population), and 92 subjects ([…]) of those subjects completed Week 14. […] Subjects were classified according to their randomized treatment.
Safety endpoints were measured such as Frequency of treatment-emergent adverse event (TEAEs); TEAEs leading to discontinuation; Treatment-emergent serious adverse events (SAEs); Percentage of subjects with serum cortisol level ≤5 μg/dL (≤138 nmol/L) or abnormal adrenocorticotropic hormone (ACTH) stimulation test (serum cortisol <16 μg/dL [≤440 nmol/L] at 60 minutes); The number of subjects discontinuing for HPA axis suppression will be recorded; and frequency of oral and esophageal candidiasis.

[4] = cited from earlier work
[5] = all FP dosing groups, TOTAL (n = 43)

Substance: S-(fluoromethyl)-6α,9-difluoro-11β, 17-dihydroxy-16α-methyl-3-oxoandrosta-1, 4-diene-17β-carbothioate, 17-propanoate [FP]
- Histology Responder Rate, % ([1]; FP 1.5 mg BID (n = 12)): 100%
- Histology Responder Rate, % ([1]; FP 1.5 mg HS (n = 13)): 54%
- Histology Responder Rate, % ([1]; FP 3 mg BID (n = 7)): 86%
- Histology Responder Rate, % ([1]; FP 3 mg HS (n = 11)): 82%
- Histology Responder Rate, % [1, 5]: 79%
- Symptoms Responder Rate (≤50% reduction dysphagia episodes), % ([2]; FP 1.5 mg BID (n = 12)): 42%
- Symptoms Responder Rate (≤50% reduction dysphagia episodes), % ([2]; FP 1.5 mg HS (n = 13)): 77%
- Symptoms Responder Rate (≤50% reduction dysphagia episodes), % ([2]; FP 3 mg BID (n = 7)): 57%
- Symptoms Responder Rate (≤50% reduction dysphagia episodes), % ([2]; FP 3 mg HS (n = 11)): 73%
- Symptoms Responder Rate (≤50% reduction dysphagia episodes), % [2, 5]: 63%
- At least 1 TEAE, (%) ([3]; FP 1.5 mg BID (n = 23)): (74) %
- Maximum severity of TEAE: Mild, (%) ([3]; FP 1.5 mg BID (n = 23)): (61) %
- Maximum severity of TEAE: Moderate, (%) ([3]; FP 1.5 mg BID (n = 23)): (13) %
- TEAE leading to study discontinuation, (%) ([3]; FP 1.5 mg BID (n = 23)): (9) %
- TEAE of special interest, (%) ([3]; FP 1.5 mg BID (n = 23)): (13) %
- TEAE related to study drug, (%) ([3]; FP 1.5 mg BID (n = 23)): (22) %
- At least 1 TEAE, (%) ([3]; FP 1.5 mg HS (n = 21)): (62) %
- Maximum severity of TEAE: Mild, (%) ([3]; FP 1.5 mg HS (n = 21)): (52) %
- Maximum severity of TEAE: Moderate, (%) ([3]; FP 1.5 mg HS (n = 21)): (5) %
- Maximum severity of TEAE: Severe, (%) ([3]; FP 1.5 mg HS (n = 21)): (5) %
- TEAE related to study drug, (%) ([3]; FP 1.5 mg HS (n = 21)): (10) %
- At least 1 TEAE, (%) ([3]; FP 3 mg BID (n = 20)): (85) %
- Maximum severity of TEAE: Mild, (%) ([3]; FP 3 mg BID (n = 20)): (60) %
- Maximum severity of TEAE: Moderate, (%) ([3]; FP 3 mg BID (n = 20)): (25) %
- TEAE leading to study discontinuation, (%) ([3]; FP 3 mg BID (n = 20)): (5) %
- TEAE of special interest, (%) ([3]; FP 3 mg BID (n = 20)): (35) %
- TEAE related to study drug, (%) ([3]; FP 3 mg BID (n = 20)): (50) %
- At least 1 TEAE, (%) ([3]; FP 3 mg HS (n = 21)): (76) %
- Maximum severity of TEAE: Mild, (%) ([3]; FP 3 mg HS (n = 21)): (29) %
- Maximum severity of TEAE: Moderate, (%) ([3]; FP 3 mg HS (n = 21)): (43) %
- Maximum severity of TEAE: Severe, (%) ([3]; FP 3 mg HS (n = 21)): (5) %
- Serious TEAE, (%) ([3]; FP 3 mg HS (n = 21)): (5) %
- TEAE of special interest, (%) ([3]; FP 3 mg HS (n = 21)): (5) %
- TEAE related to study drug, (%) ([3]; FP 3 mg HS (n = 21)): (29) %
- At least 1 TEAE, (%) ([3]; Total FP (n = 85)): 74%
- Maximum severity of TEAE: Mild, (%) ([3]; Total FP (n = 85)): 51%
- Maximum severity of TEAE: Moderate, (%) ([3]; Total FP (n = 85)): 21%
- Maximum severity of TEAE: Severe, (%) ([3]; Total FP (n = 85)): 2 (2) %
- Serious TEAE, (%) ([3]; Total FP (n = 85)): 1 (1) %
- TEAE leading to study discontinuation, (%) ([3]; Total FP (n = 85)): 4%
- TEAE of special interest, (%) ([3]; Total FP (n = 85)): 13%
- TEAE related to study drug, (%) ([3]; Total FP (n = 85)): 25%
- Solubility ([4]; acetone, dichloromethane, ethyl acetate and chloroform): sparingly soluble
- Solubility ([4]; dimethyl sulfoxide and dimethylformamide): freely soluble
- Solubility ([4]; methanol and 95% ethanol): slightly soluble
- Solubility ([4]; water): practically insoluble
